Measured values as given in US6942966B1, “Methods for processing chemical compounds having reactive functional groups” (ISIS Pharmaceuticals, Inc., priority 1995, dated 2005).

Molecular target: T1, human type II PLA2 (Homo sapiens, UniProt P14555)
T1 construct: made in house; host or cells: baculovirus system
T1 sequence (P14555 21-144): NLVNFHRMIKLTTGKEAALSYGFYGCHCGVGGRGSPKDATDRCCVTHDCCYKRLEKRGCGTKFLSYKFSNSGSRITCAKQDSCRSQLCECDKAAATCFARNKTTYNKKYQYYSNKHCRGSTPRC
Assay: E. coli PLA2 assay (3H-oleic acid labeled E. coli as substrate)
Format: biochemical
Conditions: compounds 33 and 34 assayed as a mixture at 100 μM, 50 μM, and 10 μM (final concentration)
From the text: After each round of synthesis as described in the above examples, the resulting pools of compounds are screened for inhibition of human type II PLA2 enzymatic activity. The assay is effected at the conclusion of each round of synthesis to identify the wining pool from that round of synthesis. Concurrently, the libraries additionally can be screened in other in vitro assays to determine further mechanisms of inhibition.
The pools of the macrocyclic libraries are screened for inhibition of PLA2 in the assay using E. coli labeled with ^3H-oleic acid (Franson et al., J. Lipid Res. 1974, 15, 380; and Davidson et al., J. Biol. Chem. 1987, 262, 1698) as the substrate. Type II PLA2 (originally isolated from synovial fluid), expressed in a baculovirus system and partially purified, serves as a source of the enzyme. […] 165 μl of each supernate is then put into a scintillation vial containing 6 ml of scintillant (Scintiverse) and cpms are measured in a Beckman Liquid Scintillation Counter. […]
The compounds were assayed as a mixture at 100 μM, 50 μM, and 10 μM (final concentration). […] Duplicate assay values were averaged, background (no compound, no PLA2) was subtracted and the percentage of the positive control (no compound) was calculated.

| Substance | inhibitory activity in E. coli PLA2 assay |
| --- | --- |
| 1,11,18,28-tetracarboxy-2,10,19,27-tetraaza-7,22-bis-(tosyl)aza-3,26-dioxa-[11.11]pyridinophane [compound 33] | showed inhibitory activity |
| 1,11,18,28-tetracarboxy-2,10,19,27-tetraaza-7,24-bis-(tosyl)aza-3,20-dioxa-[11.11]pyridinophane [compound 34] | showed inhibitory activity |
